Assay results reported in ChEMBL document CHEMBL2218064, “Structure-activity relationship data for chemical series of antagonists of the P2X7 receptor (Supplementary Bioactivity Data for publication CHEMBL1157114)”.

Target: T1, P2X purinoceptor 7 (Homo sapiens, UniProt Q99572)
T1 sequence (Q99572 whole entry): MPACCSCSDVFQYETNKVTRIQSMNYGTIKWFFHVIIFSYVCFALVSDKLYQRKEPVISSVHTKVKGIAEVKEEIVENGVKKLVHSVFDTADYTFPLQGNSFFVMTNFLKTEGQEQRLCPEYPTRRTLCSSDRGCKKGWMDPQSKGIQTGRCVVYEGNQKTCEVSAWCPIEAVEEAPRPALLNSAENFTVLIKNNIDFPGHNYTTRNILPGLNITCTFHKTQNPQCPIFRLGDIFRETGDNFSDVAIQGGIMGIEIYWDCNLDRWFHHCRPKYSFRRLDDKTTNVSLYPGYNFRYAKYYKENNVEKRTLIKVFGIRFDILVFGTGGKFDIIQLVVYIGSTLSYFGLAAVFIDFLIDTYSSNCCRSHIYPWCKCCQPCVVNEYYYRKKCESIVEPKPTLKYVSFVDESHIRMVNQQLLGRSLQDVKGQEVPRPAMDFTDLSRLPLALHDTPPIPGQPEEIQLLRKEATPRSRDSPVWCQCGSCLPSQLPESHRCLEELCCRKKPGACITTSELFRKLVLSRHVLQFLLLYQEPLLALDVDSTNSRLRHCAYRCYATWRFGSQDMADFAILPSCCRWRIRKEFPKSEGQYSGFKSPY
Test: SUPPLEMENTARY: Inhibition of human P2X7 receptor assessed as inhibition of ethidium bromide accumulation. Same assay as CHEMBL1103860

## Cc1ccccc1N1CCN(Cc2ccc(Cl)cc2)C(=O)C1=O
  IC50: 398 nM

## Cc1ccccc1N1CCN(Cc2cc(Cl)ccc2Cl)C(=O)C1=O
  IC50: 1000 nM

## Cc1cc(F)ccc1CN1CCN(c2ccccc2C)C(=O)C1=O
  IC50: 158 nM

## Cc1c(F)cccc1N1CCN(Cc2ccc(F)cc2Cl)C(=O)C1=O
  IC50: 100 nM

## COc1c(F)cccc1N1CCN(Cc2ccc(F)cc2Cl)C(=O)C1=O
  IC50: 79.4 nM

## Cc1ccc(F)cc1N1CCN(Cc2ccc(F)cc2Cl)C(=O)C1=O
  IC50: 39.8 nM

## Cc1ccc(C(F)(F)F)cc1N1CCN(Cc2ccc(F)cc2Cl)C(=O)C1=O
  IC50: 50.1 nM

## COc1ccc(C)c(N2CCN(Cc3ccc(F)cc3Cl)C(=O)C2=O)c1
  IC50: 10 nM

## COc1ccc(F)cc1N1CCN(Cc2ccc(F)cc2Cl)C(=O)C1=O
  IC50: 100 nM

## Cc1ccccc1N1CCN(C(=O)c2cccc(Cl)c2Cl)CC1=O
  IC50: 15.8 nM

## N#Cc1c(F)cccc1N1CCN(Cc2ccc(F)cc2Cl)C(=O)C1=O
  IC50: 631 nM

## Cc1ccccc1CN1CCN(c2cccc(Cl)c2Cl)C(=O)C1=O
  IC50: 251 nM

## O=C1C(=O)N(c2cccc(Cl)c2Cl)CCN1Cc1ccccc1Cl
  IC50: 200 nM

## O=C1C(=O)N(c2cccc(Cl)c2Cl)CCN1Cc1cccc(Cl)c1
  IC50: 501 nM

## O=C1C(=O)N(c2cccc(Cl)c2Cl)CCN1Cc1ccc(Cl)cc1
  IC50: 794 nM

## O=C1C(=O)N(c2cccc(Cl)c2Cl)CCN1Cc1ccc(F)cc1Cl
  IC50: 100 nM

## Cc1cccc(N2C[C@@H](C(=O)NCc3ccc(F)cc3Cl)N(C)C2=O)n1
  IC50: 398 nM

## Cc1ccc(N2C[C@@H](C(=O)NCc3cccc(C(F)(F)F)c3Cl)N(C)C2=O)cn1
  IC50: 10 nM

## Cc1ccc(N2C[C@@H](C(=O)NCc3ccc(F)cc3Cl)N(C)C2=O)cn1
  IC50: 63.1 nM

## O=C1C(=O)N(c2cccc(I)c2)CCN1Cc1ccc(F)cc1Cl
  IC50: 398 nM

## Cc1ncccc1N1C[C@@H](C(=O)NCc2ccc(F)cc2Cl)N(C)C1=O
  IC50: 50.1 nM

## CN1C(=O)NC[C@H]1C(=O)NCc1ccc(F)cc1Cl
  IC50: 39.8 nM

## CN1C(=O)N(c2ccccn2)C[C@H]1C(=O)NCc1cccc(C(F)(F)F)c1Cl
  IC50: 6.31 nM

## CN1C(=O)N(c2ccccn2)C[C@H]1C(=O)NCc1ccc(F)cc1Cl
  IC50: 79.4 nM

## CN1C(=O)N(c2cccnc2)C[C@H]1C(=O)NCc1ccc(F)cc1Cl
  IC50: 50.1 nM

## Cc1cnccc1N1CCN(Cc2ccc(F)cc2Cl)C(=O)C1=O
  IC50: 501 nM

## COc1cccc(N2CCN(Cc3ccc(F)cc3Cl)C(=O)C2=O)c1C
  IC50: 25.1 nM

## O=C1C(=O)N(c2ccccc2Br)CCN1Cc1ccc(F)cc1Cl
  IC50: 12.6 nM

## Cc1ccccc1N1CCN(C(=O)c2ccc(F)cc2Cl)CC1=O
  IC50: 501 nM

## Cc1cccc(N2CCN(Cc3ccc(F)cc3Cl)C(=O)C2=O)c1N1CCOCC1
  IC50: 50.1 nM

## O=C1C(=O)N(c2cccc(Cl)c2N2CCOCC2)CCN1Cc1ccc(F)cc1Cl
  IC50: 39.8 nM

## Cc1ccc(N2CCOCC2)cc1N1CCN(Cc2ccc(F)cc2Cl)C(=O)C1=O
  IC50: 31.6 nM

## Cc1ccc(C)c(N2CCN(Cc3ccc(F)cc3Cl)C(=O)C2=O)n1
  IC50: 200 nM

## Cc1ccccc1N1CCN(C(=O)c2ccc(Cl)cc2Cl)CC1=O
  IC50: 63.1 nM

## O=C(c1cccc(Cl)c1Cl)N1CCN(c2ccc(F)cc2)C(=O)C1
  IC50: 100 nM

## Cc1c(CN2CCOCC2)cccc1N1CCN(Cc2ccc(F)cc2Cl)C(=O)C1=O
  IC50: 100 nM

## Cc1ncccc1N1CCN(Cc2ccc(F)cc2Cl)C(=O)C1=O
  IC50: 631 nM

## Cc1ccccc1N1CCN(C(=O)c2cccc(C(F)(F)F)c2Cl)CC1=O
  IC50: 10 nM

## O=C(c1cccc(Cl)c1Cl)N1CCN(c2cccc(Cl)c2)C(=O)C1
  IC50: 100 nM

## Cc1cccnc1N1CCN(Cc2ccc(F)cc2Cl)C(=O)C1=O
  IC50: 631 nM

## CN1C(=O)N(c2ncccn2)C[C@H]1C(=O)NCc1ccc(Cl)cc1Cl
  IC50: 6.31 nM

## CN1C(=O)N(c2ncccn2)C[C@H]1C(=O)NCc1ccc(F)cc1Cl
  IC50: 25.1 nM

## CN1C(=O)N(c2ncccn2)C[C@H]1C(=O)NCc1ccc(F)c(F)c1Cl
  IC50: 7.94 nM

## O=C1C(=O)N(c2ccccc2N2CCCCC2)CCN1Cc1ccc(F)cc1Cl
  IC50: 50.1 nM

## O=C(c1cccc(Cl)c1Cl)N1CCN(c2ccc(Cl)cc2)C(=O)C1
  IC50: 126 nM

## Cc1c(Cl)cccc1CNC(=O)[C@@H]1CN(c2ncccn2)C(=O)N1C
  IC50: 7.94 nM

## Cc1c(OCCN2CCOCC2)cccc1N1CCN(Cc2ccc(F)cc2Cl)C(=O)C1=O
  IC50: 100 nM

## CN1C(=O)NC[C@H]1C(=O)NCc1ccc(F)c(F)c1Cl
  IC50: 20 nM

## Cc1c(N2CCOCC2)cccc1N1CCN(Cc2ccc(F)cc2Cl)C(=O)C1=O
  IC50: 31.6 nM

## Cc1ccc(N2CCOCC2)c(N2CCN(Cc3ccc(F)cc3Cl)C(=O)C2=O)c1
  IC50: 50.1 nM

## Cc1cccnc1N1C[C@@H](C(=O)NCc2cccc(C(F)(F)F)c2Cl)N(C)C1=O
  IC50: 5.01 nM

## Cc1cccnc1N1C[C@@H](C(=O)NCc2ccc(Cl)cc2Cl)N(C)C1=O
  IC50: 15.8 nM

## Cc1cccnc1N1C[C@@H](C(=O)NCc2ccc(F)c(F)c2Cl)N(C)C1=O
  IC50: 25.1 nM

## O=C1C(=O)N(c2ccccc2N2CCCC2)CCN1Cc1ccc(F)cc1Cl
  IC50: 39.8 nM

## O=C(c1ccc(F)cc1Cl)N1CCN(c2ccccc2Cl)C(=O)C1
  IC50: 39.8 nM

## O=C(c1ccc(Cl)cc1Cl)N1CCN(c2ccccc2Cl)C(=O)C1
  IC50: 25.1 nM

## O=C(c1cccc(Cl)c1Cl)N1CCN(c2ccc(F)cc2Cl)C(=O)C1
  IC50: 31.6 nM

## O=C(c1cccc(C(F)(F)F)c1Cl)N1CCN(c2ccccc2Cl)C(=O)C1
  IC50: 5.01 nM

## Cc1ncccc1N1C[C@@H](C(=O)NCc2ccc(F)c(F)c2Cl)N(C)C1=O
  IC50: 31.6 nM

## Cc1ncccc1N1C[C@@H](C(=O)NCc2cccc(Cl)c2Cl)N(C)C1=O
  IC50: 39.8 nM

## COc1c(Cl)cccc1N1CCN(Cc2ccc(F)cc2Cl)C(=O)C1=O
  IC50: 63.1 nM

## O=C1C(=O)N(c2cccc3[nH]ccc23)CCN1Cc1ccc(F)cc1Cl
  IC50: 12.6 nM

## O=C(c1cccc(C(F)(F)F)c1Cl)N1CCN(c2ccc(F)cc2Cl)C(=O)C1
  IC50: 15.8 nM

## Cc1cc(N2C[C@@H](C(=O)NCc3ccc(F)c(F)c3Cl)N(C)C2=O)ccn1
  IC50: 31.6 nM

## Cc1nc[nH]c1CN1C[C@@H](C(=O)NCc2ccc(F)c(F)c2Cl)N(C)C1=O
  IC50: 200 nM

## O=C(c1cccc(C(F)(F)F)c1Cl)N1CCN(c2ccc(F)cc2)C(=O)C1
  IC50: 25.1 nM

## CN1CCN(C(=O)c2cccc(Cl)c2Cl)CC1=O
  IC50: 200 nM

## O=C1C(=O)N(c2cc(Cl)ccc2N2CCOCC2)CCN1Cc1ccc(F)cc1Cl
  IC50: 31.6 nM

## COc1c(Br)cccc1N1CCN(Cc2ccc(F)cc2Cl)C(=O)C1=O
  IC50: 50.1 nM

## CCc1ccccc1N1CCN(Cc2ccc(F)cc2Cl)C(=O)C1=O
  IC50: 10 nM

## CCN1CCN(C(=O)c2cccc(Cl)c2Cl)CC1=O
  IC50: 200 nM

## O=C1CN(C(=O)c2cccc(Cl)c2Cl)CCN1Cc1ccc(F)cc1Cl
  IC50: 158 nM

## CN1C(=O)N(CCN2CCOCC2)C[C@H]1C(=O)NCc1ccc(F)c(F)c1Cl
  IC50: 63.1 nM

## CC(C)N1CCN(C(=O)c2cccc(Cl)c2Cl)CC1=O
  IC50: 126 nM

## CC(C)c1ccccc1N1CCN(Cc2ccc(F)cc2Cl)C(=O)C1=O
  IC50: 7.94 nM

## O=C1C(=O)N(c2cc(F)ccc2N2CCOCC2)CCN1Cc1ccc(F)cc1Cl
  IC50: 15.8 nM

## O=C1C(=O)N(c2cc(Br)ccc2Cl)CCN1Cc1ccc(F)cc1Cl
  IC50: 10 nM

## O=C1C(=O)N(c2cccc3c2OCCO3)CCN1Cc1ccc(F)cc1Cl
  IC50: 251 nM

## O=C1C(=O)N(c2cc(F)ccc2F)CCN1Cc1ccc(F)cc1Cl
  IC50: 158 nM

## CC(C)(C)c1ccccc1N1CCN(Cc2ccc(F)cc2Cl)C(=O)C1=O
  IC50: 20 nM
